Reference: ChEMBL document CHEMBL6153126, “Design, Synthesis, and Activity Evaluation of Novel Bifenamide Dual-Target Antibacterial Inhibitors and Carrier Based on Infectious Microenvironment” (J Med Chem, 2025)
The source made the active and inactive calls. The calls are words filed in the database; no cut-off is given here.

Legend:
HeLa = assay: Cytotoxicity against human HeLa cells incubated for 24 hrs by CCK-8 assay; assay type: functional, cell-based
[1] = molecular target: Programmed cell death protein 1/Programmed cell death 1 ligand 1 (Homo sapiens, UniProt Q9NZQ7); assay: Inhibition of PD-1/PD-L1 (unknown origin) protein-protein interaction preincubated for 15 mins followed by PD-1-Eu addition and measured after 90 mins by TR-FRET assay; assay type: protein-complex assay
Klebsiella pneumoniae [2] = assay: Antimicrobial activity against Klebsiella pneumoniae ATCC 13883 assessed as inhibition of microbial growth incubated for 64 hrs by broth-microdilution assay; assay type: functional
Escherichia coli = assay: Antimicrobial activity against Escherichia coli ATCC 8739 assessed as inhibition of microbial growth incubated for 64 hrs by broth-microdilution assay; assay type: functional
Salmonella typhimurium = assay: Antimicrobial activity against Salmonella typhimurium ATCC 14028 assessed as inhibition of microbial growth incubated for 64 hrs by broth-microdilution assay; assay type: functional, Salmonella enterica subsp. enterica serovar Typhimurium; details: Salmonella enterica
Pseudomonas aeruginosa [3] = assay: Antimicrobial activity against Pseudomonas aeruginosa ATCC 9027 assessed as inhibition of microbial growth incubated for 64 hrs by broth-microdilution assay; assay type: functional
Klebsiella pneumoniae [4] = assay: Antimicrobial activity against Klebsiella pneumoniae ATCC 13883 assessed as inhibition zone; assay type: functional
A549 = assay: Cytotoxicity against human A549 cells incubated for 24 hrs by CCK-8 assay; assay type: functional, cell-based; details: A549, 24 h
Pseudomonas aeruginosa [5] = assay: Antimicrobial activity against Pseudomonas aeruginosa ATCC 9027 assessed as inhibition zone; assay type: functional; details: time 64 hrs
[6] = molecular target: T1, UDP-3-O-acyl-N-acetylglucosamine deacetylase (Escherichia coli K-12, UniProt P0A725); assay: Inhibition of Escherichia coli LpxC
T1 sequence (P0A725 whole entry): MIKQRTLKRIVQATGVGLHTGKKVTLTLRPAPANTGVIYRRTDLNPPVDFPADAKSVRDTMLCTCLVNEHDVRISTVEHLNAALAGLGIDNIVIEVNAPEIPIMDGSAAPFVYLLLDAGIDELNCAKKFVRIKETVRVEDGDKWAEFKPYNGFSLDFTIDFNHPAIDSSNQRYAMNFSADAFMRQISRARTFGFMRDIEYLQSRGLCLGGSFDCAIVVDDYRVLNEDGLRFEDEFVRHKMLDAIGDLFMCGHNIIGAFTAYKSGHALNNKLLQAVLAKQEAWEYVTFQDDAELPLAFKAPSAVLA

[7] = molecular target: T1, UDP-3-O-acyl-N-acetylglucosamine deacetylase; assay: Binding affinity to Escherichia coli LpxC assessed as dissociation constant by SPR analysis
[8] = Binding affinity to PD-L1 (unknown origin) assessed as dissociation constant by SPR analysis; parameters: species or system Homo sapiens
[9] = molecular target: Programmed cell death 1 ligand 1 (Homo sapiens) (UniProt Q9NZQ7); assay: Binding affinity to PD-L1 (unknown origin) assessed as association constant at equilibrium by ITC analysis
[10] = molecular target: Programmed cell death 1 ligand 1 (Homo sapiens) (UniProt Q9NZQ7); assay: Binding affinity to PD-L1 (unknown origin) assessed as Change in enthalpy by ITC analysis
Klebsiella pneumoniae [11] = assay: Induction of intracellular ROS accumulation in Klebsiella pneumoniae ATCC 13883 incubated for 12 hrs by fluorescence microscopic analysis; assay type: functional, organism-based
Klebsiella pneumoniae [12] = assay: Antimicrobial activity against Klebsiella pneumoniae ATCC 13883 assessed as increase in percentage of bacterial cells by flow cytometry analysis; assay type: functional, organism-based
Klebsiella pneumoniae [13] = assay: Bactericidal activity against Klebsiella pneumoniae ATCC 13883 assessed as reduction in survival rate by colony counting method; assay type: functional
Klebsiella pneumoniae [14] = assay: Induction of morphological changes in Klebsiella pneumoniae ATCC 13883 assessed as reduction in cell membrane thickness measured for 24 hrs by transmission electron microscopy analysis; assay type: functional, organism-based
Klebsiella pneumoniae [15] = assay: Induction of morphological changes in Klebsiella pneumoniae ATCC 13883 assessed as reduction in cell wall thickness measured for 24 hrs by transmission electron microscopy analysis; assay type: functional, organism-based
Klebsiella pneumoniae [16] = assay: Induction of morphological changes in Klebsiella pneumoniae ATCC 13883 assessed as leakage in cellular contents measured for 48 hrs by transmission electron microscopy analysis; assay type: functional, organism-based
Klebsiella pneumoniae [17] = assay: Induction of morphological changes in Klebsiella pneumoniae ATCC 13883 assessed as leakage in cellular contents measured for 96 hrs by transmission electron microscopy analysis; assay type: functional, organism-based
Klebsiella pneumoniae [18] = assay: Antibacterial activity against Klebsiella pneumoniae ATCC 13883 infected in Kunming mouse model measured after 8 hrs; assay type: functional, organism-based
[19] = Toxicity in Kunming mouse assessed as side effect at 2 mg/kg, iv; assay type: organism-based; details: in vivo
[20] = Toxicity in Kunming mouse assessed as body weight loss at 2 mg/kg, iv; assay type: organism-based; details: in vivo
Klebsiella pneumoniae [21] = assay: Antibacterial activity against Klebsiella pneumoniae ATCC 13883 infected in Kunming mouse model assessed as reduction in alveolar space in lung at 2 mg/kg, iv by H and E staining based analysis; assay type: functional, organism-based
Klebsiella pneumoniae [22] = assay: Antibacterial activity against Klebsiella pneumoniae ATCC 13883 infected in Kunming mouse model assessed as reduction in bacterial proliferation at 2 mg/kg, iv; assay type: functional, organism-based
Klebsiella pneumoniae [23] = assay: Downregulation of PD-L1 expression in Klebsiella pneumoniae ATCC 13883 by Western blot analysis; assay type: functional
Klebsiella pneumoniae [24] = assay: Downregulation of PD-1 expression in Klebsiella pneumoniae ATCC 13883 by Western blot analysis; assay type: functional
Klebsiella pneumoniae [25] = assay: Downregulation of MMP9 expression in Klebsiella pneumoniae ATCC 13883 by Western blot analysis; assay type: functional
Klebsiella pneumoniae [26] = assay: Downregulation of NLRP3 expression in Klebsiella pneumoniae ATCC 13883 by Western blot analysis; assay type: functional
Klebsiella pneumoniae [27] = assay: Downregulation of IL-2 expression in Klebsiella pneumoniae ATCC 13883 by Western blot analysis; assay type: functional
Klebsiella pneumoniae [28] = assay: Downregulation of IFN-gamma expression in Klebsiella pneumoniae ATCC 13883 by Western blot analysis; assay type: functional
Klebsiella pneumoniae [29] = assay: Downregulation of NF-kappaB expression in Klebsiella pneumoniae ATCC 13883 by Western blot analysis; assay type: functional
Klebsiella pneumoniae [30] = assay: Downregulation of PD-L1 expression in Klebsiella pneumoniae ATCC 13883 by immunohistochemistry analysis; assay type: functional
Klebsiella pneumoniae [31] = assay: Downregulation of IL-2 expression in Klebsiella pneumoniae ATCC 13883 by immunohistochemistry analysis; assay type: functional
Klebsiella pneumoniae [32] = assay: Downregulation of IFN-gamma expression in Klebsiella pneumoniae ATCC 13883 by immunohistochemistry analysis; assay type: functional
[33] = Toxicity in Kunming mouse assessed as lung damage at 2 mg/kg, iv by H and E staining based analysis; assay type: organism-based; details: in vivo
[34] = Toxicity in Kunming mouse assessed as lung damage at 2 mg/kg, iv by masson staining based analysis; assay type: organism-based; details: in vivo
Klebsiella pneumoniae [35] = assay: Antibacterial activity against Klebsiella pneumoniae ATCC 13883 infected in Kunming mouse model assessed as organised collagen fibers in skin tissue at 2 mg/kg, iv by Masson's trichome staining based analysis; assay type: functional, organism-based
[36] = Toxicity in Kunming mouse assessed as change in AST level at 2 mg/kg, iv (reference value: 91.5 +/- 7.2 IU/L); assay type: organism-based; details: in vivo
[37] = Toxicity in Kunming mouse assessed as change in ALT level at 2 mg/kg, iv (reference value: 54.8 +/- 5.2 IU/L); assay type: organism-based; details: in vivo
[38] = Toxicity in Kunming mouse assessed as change in CRE level at 2 mg/kg, iv (reference value: 16.7 +/- 1.6 micromol/L); assay type: organism-based; details: in vivo
[39] = Toxicity in Kunming mouse assessed as change in BUN level at 2 mg/kg, iv (reference value: 11.2 +/- 2 mmol/L); assay type: organism-based; details: in vivo
[40] = Initial plasma concentration in rat at 2 mg/kg, iv measured upto 24 hrs by LC-MS/MS analysis; assay type: ADME, organism-based; details: plasma
[41] = Clearance in rat at 2 mg/kg, iv measured upto 24 hrs by LC-MS/MS analysis; assay type: ADME, organism-based; details: in vivo
[42] = Volume of distribution at steady state in rat at 2 mg/kg, iv measured upto 24 hrs by LC-MS/MS analysis; assay type: ADME, organism-based; details: in vivo, read-out: Vdss
[43] = Half life in rat at 2 mg/kg, iv measured upto 24 hrs by LC-MS/MS analysis; assay type: ADME, organism-based; details: in vivo
[44] = AUC (0 to t) in rat at 2 mg/kg, iv measured upto 24 hrs by LC-MS/MS analysis; assay type: ADME, organism-based; details: in vivo

Sequence of Programmed cell death 1 ligand 1 (Homo sapiens) (Q9NZQ7 whole entry): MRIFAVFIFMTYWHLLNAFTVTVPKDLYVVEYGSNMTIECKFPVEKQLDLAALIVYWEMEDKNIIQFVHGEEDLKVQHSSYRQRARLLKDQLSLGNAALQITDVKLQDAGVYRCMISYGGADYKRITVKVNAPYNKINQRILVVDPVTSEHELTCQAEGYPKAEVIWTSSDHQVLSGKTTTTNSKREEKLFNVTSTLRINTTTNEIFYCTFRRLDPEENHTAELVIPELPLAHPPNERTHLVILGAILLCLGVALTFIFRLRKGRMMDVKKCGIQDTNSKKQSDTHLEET
Sequence of Programmed cell death protein 1/Programmed cell death 1 ligand 1 (Q15116 whole entry): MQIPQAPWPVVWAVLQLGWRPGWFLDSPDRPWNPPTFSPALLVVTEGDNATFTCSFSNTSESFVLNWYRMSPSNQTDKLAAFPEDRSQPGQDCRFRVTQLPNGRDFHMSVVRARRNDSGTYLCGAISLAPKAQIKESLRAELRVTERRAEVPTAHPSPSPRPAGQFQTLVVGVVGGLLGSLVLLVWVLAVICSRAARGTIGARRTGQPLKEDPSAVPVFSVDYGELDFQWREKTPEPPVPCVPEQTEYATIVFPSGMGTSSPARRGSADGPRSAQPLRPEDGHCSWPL
Sequence of Programmed cell death protein 1/Programmed cell death 1 ligand 1 (Q9NZQ7 whole entry): as the sequence (Q9NZQ7 whole entry) above

MIC50 (Klebsiella pneumoniae [2]): 0.25 µg/mL
MIC50 (Escherichia coli): 0.5 µg/mL
MIC50 (Salmonella typhimurium): 0.5 µg/mL
MIC50 (Pseudomonas aeruginosa [3]): 0.5 µg/mL
IC50 [6]: 5200 nM
Kd [7]: 0.357 nM
Kd [8]: 0.523 nM
C0 at 24 h [40]: 649 ng/mL
clearance [41]: 63.7 mL/min/kg
Vd [42]: 5.71 L/kg
half-life [43]: 2.39 h
AUC(0-t) at 24 h [44]: 431 ng·h/mL
SMILES: Cc1c(COc2cccc(CNC(C(=O)NO)C(C)O)c2)cccc1-c1ccccc1 (stereo not drawn)
IC50 (HeLa): > 50000 nM
IC50 [1]: 81 nM
inhibition zone (IZ) (Klebsiella pneumoniae [4]): 14.7 mm
IC50 (A549): > 50000 nM
inhibition zone (IZ) (Pseudomonas aeruginosa [5]): 14.2 mm
Ka [9]: 6.04 10^5/M
deltaH [10]: 1.79 kcal/mol
Activity (Klebsiella pneumoniae [11]): Active
Activity (Klebsiella pneumoniae [12]): Active
Activity (Klebsiella pneumoniae [13]): Active
Activity (Klebsiella pneumoniae [14]): Active
Activity (Klebsiella pneumoniae [15]): Active
Activity (Klebsiella pneumoniae [16]): Active
Activity (Klebsiella pneumoniae [17]): Active
Activity (Klebsiella pneumoniae [18]): Active
Activity [19]: Non-toxic
Activity [20]: Non-toxic
Activity (Klebsiella pneumoniae [21]): Active
Activity (Klebsiella pneumoniae [22]): Active
Activity (Klebsiella pneumoniae [23]): Active
Activity (Klebsiella pneumoniae [24]): Active
Activity (Klebsiella pneumoniae [25]): Active
Activity (Klebsiella pneumoniae [26]): Active
Activity (Klebsiella pneumoniae [27]): Active
Activity (Klebsiella pneumoniae [28]): Active
Activity (Klebsiella pneumoniae [29]): Active
Activity (Klebsiella pneumoniae [30]): Active
Activity (Klebsiella pneumoniae [31]): Active
Activity (Klebsiella pneumoniae [32]): Active
Activity [33]: Non-toxic
Activity [34]: Non-toxic
Activity (Klebsiella pneumoniae [35]): Active
Activity [36]: 104.2 IU/L
Activity [37]: 34.5 IU/L
Activity [38]: 12.5 µmol/L
Activity [39]: 8.6 mmol/L
